Legend:
Type in all cases: in vivo
[1] = tested on: Lolium rigidum; test: Post-emergence herbicidal action against LOLRI; conditions: visual rating about 3 weeks after treatment
Method: (§1) Post-Emergence Herbicidal Action Against Harmful Plants and Crop Plant Compatibility Seeds of monocotyledonous and dicotyledonous weeds and crop plants are placed in sandy loam in plastic or wood-fibre pots, covered with soil and cultivated in a greenhouse under controlled growth conditions. 2 to 3 weeks after sowing, the test plants are treated at the one-leaf stage. The compounds of the invention, formulated in the form of wettable powders (WP) or as emulsion concentrates (EC), are then sprayed onto the green parts of the plants as aqueous suspension or emulsion with addition of 0.5% additive at a water application rate of 600 l/ha (converted). After the test plants have been kept in the greenhouse under optimum growth conditions for about 3 weeks, the activity of the preparations is rated visually in comparison to untreated controls. For example, 100% activity=the plants have died, 0% activity=like control plants. [table]

[2] = tested on: Amaranthus retroflexus; test: Post-emergence herbicidal action against AMARE; conditions: 20 g a.i./ha
Method: as §1

[3] = tested on: Alopecurus myosuroides; test: Post-emergence herbicidal action against ALOMY; conditions: visual rating about 3 weeks after treatment
Method: as §1

[4] = tested on: Echinochloa crus-galli; test: Post-emergence herbicidal action against ECHCG; conditions: visual rating about 3 weeks after treatment
Method: as §1

[5] = tested on: DIGSA; test: Post-emergence herbicidal action against DIGSA; conditions: visual rating about 3 weeks after treatment
Method: as §1, with “plants.” for “plants. [table]”

[6] = tested on: Avena fatua; test: Post-emergence herbicidal action against AVEFA; conditions: visual rating about 3 weeks after treatment
Method: as §1

[7] = tested on: Veronica persica; test: Post-emergence herbicidal action against VERPE
Method: as §1

[8] = tested on: Setaria viridis; test: Post-emergence herbicidal action against SETVI; conditions: visual rating about 3 weeks after treatment
Method: as §1

[9] = tested on: Abutilon theophrasti; test: Post-emergence herbicidal action against ABUTH; conditions: 20 g a.i./ha, visual rating about 3 weeks after treatment
Method: as §1

[10] = tested on: Pharbitis purpurea; test: Post-emergence herbicidal action against PHBPU; conditions: 20 g a.i./ha
Method: as §1

[11] = tested on: Polygonum convolvulus; test: Post-emergence herbicidal action against POLCO; conditions: 20 g a.i./ha
Method: as §1

[12] = tested on: Matricaria inodora; test: Post-emergence herbicidal action against MATIN; conditions: 20 g a.i./ha
Method: as §1

[13] = tested on: Hordeum murinum; test: Post-emergence herbicidal action against HORMU
Method: as §1

[14] = tested on: Stellaria media; test: Post-emergence herbicidal action against STEME; conditions: 80 g a.i./ha
Method: as §1

C=CC1(C(=O)NC2C=CC(C(=O)OCCSC)C2)CC(c2cc(F)cc(C#N)c2)=NO1 (stereo not shown) [Example I-39]
Herbicidal action against [%] LOLRI ([1]; 20 g a.i./ha): 90%
Herbicidal action against [%] AMARE [2]: 80%
Herbicidal action against [%] ALOMY ([3]; 20 g a.i./ha): 90%
Herbicidal action against [%] ECHCG ([4]; 20 g a.i./ha): 90%
Herbicidal action against [%] DIGSA ([5]; 20 g a.i./ha): 90%
Herbicidal action against [%] AVEFA ([6]; 20 g a.i./ha): 90%
Herbicidal action against [%] VERPE ([7]; 20 g a.i./ha): 90%
Herbicidal action against [%] SETVI ([8]; 20 g a.i./ha): 90%
Herbicidal action against [%] ABUTH [9]: 80%
Herbicidal action against [%] PHBPU [10]: 80%
Herbicidal action against [%] POLCO [11]: 80%

CC1(C(=O)NC2C=CC(C(=O)OCCSCc3ccc(F)cc3)C2)CC(c2cc(F)cc(F)c2)=NO1 (stereo not shown) [Example I-09]
Herbicidal action against [%] LOLRI ([1]; 20 g a.i./ha): 90%
Herbicidal action against [%] AMARE [2]: 90%
Herbicidal action against [%] ALOMY ([3]; 20 g a.i./ha): 90%
Herbicidal action against [%] ECHCG ([4]; 20 g a.i./ha): 90%
Herbicidal action against [%] DIGSA ([5]; 20 g a.i./ha): 90%
Herbicidal action against [%] AVEFA ([6]; 20 g a.i./ha): 90%
Herbicidal action against [%] VERPE ([7]; 20 g a.i./ha): 90%
Herbicidal action against [%] SETVI ([8]; 20 g a.i./ha): 90%
Herbicidal action against [%] ABUTH [9]: 80%
Herbicidal action against [%] PHBPU [10]: 80%
Herbicidal action against [%] POLCO [11]: 80%

CC1(C(=O)NC2C=CC(C(=O)OCCSCC(F)(F)F)C2)CC(c2cc(F)cc(F)c2)=NO1 (stereo not shown) [Example I-12]
Herbicidal action against [%] LOLRI ([1]; 20 g a.i./ha): 80%
Herbicidal action against [%] ALOMY ([3]; 20 g a.i./ha): 90%
Herbicidal action against [%] ECHCG ([4]; 20 g a.i./ha): 80%
Herbicidal action against [%] DIGSA ([5]; 20 g a.i./ha): 80%
Herbicidal action against [%] MATIN [12]: 80%
Herbicidal action against [%] SETVI ([8]; 20 g a.i./ha): 80%
Herbicidal action against [%] PHBPU [10]: 80%
Herbicidal action against [%] POLCO [11]: 80%

CSCCOC(=O)C1C=CC(NC(=O)C2(C)CC(c3cc(C)cc(Cl)c3)=NO2)C1 (stereo not shown) [Example I-75]
Herbicidal action against [%] ALOMY ([3]; 20 g a.i./ha): 90%
Herbicidal action against [%] ECHCG ([4]; 20 g a.i./ha): 90%
Herbicidal action against [%] DIGSA ([5]; 20 g a.i./ha): 90%
Herbicidal action against [%] AVEFA ([6]; 20 g a.i./ha): 80%
Herbicidal action against [%] VERPE ([7]; 20 g a.i./ha): 80%
Herbicidal action against [%] SETVI ([8]; 20 g a.i./ha): 90%
Herbicidal action against [%] ABUTH [9]: 80%
Herbicidal action against [%] PHBPU [10]: 80%

CSCCOC(=O)C1C=CC(NC(=O)C2(C)CC(c3cccc(C#N)c3)=NO2)C1 (stereo not shown) [Example I-41]
Herbicidal action against [%] LOLRI ([1]; 80 g a.i./ha): 80%
Herbicidal action against [%] HORMU ([13]; 20 g a.i./ha): 80%
Herbicidal action against [%] HORMU ([13]; 80 g a.i./ha): 90%
Herbicidal action against [%] ALOMY ([3]; 20 g a.i./ha): 80%
Herbicidal action against [%] DIGSA ([5]; 80 g a.i./ha): 80%
Herbicidal action against [%] AVEFA ([6]; 20 g a.i./ha): 90%
Herbicidal action against [%] AVEFA ([6]; 80 g a.i./ha): 100%
Herbicidal action against [%] VERPE ([7]; 80 g a.i./ha): 80%
Herbicidal action against [%] STEME [14]: 80%
Herbicidal action against [%] SETVI ([8]; 20 g a.i./ha): 80%
Herbicidal action against [%] SETVI ([8]; 80 g a.i./ha): 80%

CCS(=O)(=O)CCOC(=O)C1C=CC(NC(=O)C2(C)CC(c3cc(F)cc(F)c3)=NO2)C1 (stereo not shown) [Example I-01]
Herbicidal action against [%] LOLRI ([1]; 20 g a.i./ha): 100%
Herbicidal action against [%] AMARE [2]: 90%
Herbicidal action against [%] ALOMY ([3]; 20 g a.i./ha): 90%
Herbicidal action against [%] ECHCG ([4]; 20 g a.i./ha): 90%
Herbicidal action against [%] DIGSA ([5]; 20 g a.i./ha): 90%
Herbicidal action against [%] AVEFA ([6]; 20 g a.i./ha): 90%
Herbicidal action against [%] VERPE ([7]; 20 g a.i./ha): 80%
Herbicidal action against [%] SETVI ([8]; 20 g a.i./ha): 90%
Herbicidal action against [%] ABUTH [9]: 90%
Herbicidal action against [%] PHBPU [10]: 80%
Herbicidal action against [%] POLCO [11]: 90%

C[S+]([O-])CCOC(=O)C1C=CC(NC(=O)C2(C)CC(c3cc(F)cc(F)c3)=NO2)C1 (mixture of isomers) [Example I-66]
Herbicidal action against [%] LOLRI ([1]; 20 g a.i./ha): 80%
Herbicidal action against [%] AMARE [2]: 80%
Herbicidal action against [%] ALOMY ([3]; 20 g a.i./ha): 90%
Herbicidal action against [%] ECHCG ([4]; 20 g a.i./ha): 80%
Herbicidal action against [%] AVEFA ([6]; 20 g a.i./ha): 80%
Herbicidal action against [%] MATIN [12]: 80%
Herbicidal action against [%] PHBPU [10]: 80%
Herbicidal action against [%] POLCO [11]: 80%

CSCCOC(=O)C1C=CC(NC(=O)C2(CCl)CC(c3cc(C)cc(F)c3)=NO2)C1 (stereo not shown) [Example I-57]
Herbicidal action against [%] ALOMY ([3]; 20 g a.i./ha): 80%
Herbicidal action against [%] MATIN [12]: 80%

COC1(C(=O)NC2C=CC(C(=O)OCCSC(C)C)C2)CC(c2cc(F)cc(F)c2)=NO1 (stereo not shown) [Example I-25]
Herbicidal action against [%] LOLRI ([1]; 20 g a.i./ha): 90%
Herbicidal action against [%] AMARE [2]: 80%
Herbicidal action against [%] ALOMY ([3]; 20 g a.i./ha): 90%
Herbicidal action against [%] ECHCG ([4]; 20 g a.i./ha): 80%
Herbicidal action against [%] DIGSA ([5]; 20 g a.i./ha): 90%
Herbicidal action against [%] AVEFA ([6]; 20 g a.i./ha): 90%
Herbicidal action against [%] VERPE ([7]; 20 g a.i./ha): 80%
Herbicidal action against [%] SETVI ([8]; 20 g a.i./ha): 90%
Herbicidal action against [%] ABUTH [9]: 80%
Herbicidal action against [%] PHBPU [10]: 80%
Herbicidal action against [%] POLCO [11]: 80%

C=CC1(C(=O)NC2C=CC(C(=O)OCCSC)C2)CC(c2cc(C)cc(C)c2)=NO1 (mixture of isomers) [Example I-45]
Herbicidal action against [%] LOLRI ([1]; 80 g a.i./ha): 90%
Herbicidal action against [%] HORMU ([13]; 20 g a.i./ha): 80%
Herbicidal action against [%] HORMU ([13]; 80 g a.i./ha): 80%
Herbicidal action against [%] ALOMY ([3]; 80 g a.i./ha): 90%
Herbicidal action against [%] ECHCG ([4]; 80 g a.i./ha): 80%
Herbicidal action against [%] AVEFA ([6]; 80 g a.i./ha): 80%
Herbicidal action against [%] VERPE ([7]; 20 g a.i./ha): 80%
Herbicidal action against [%] VERPE ([7]; 80 g a.i./ha): 80%
Herbicidal action against [%] STEME [14]: 90%
Herbicidal action against [%] SETVI ([8]; 80 g a.i./ha): 80%

CN(C)C(=O)SCCOC(=O)C1C=CC(NC(=O)C2(C)CC(c3cc(F)cc(F)c3)=NO2)C1 (stereo not shown) [Example I-04]
Herbicidal action against [%] ALOMY ([3]; 20 g a.i./ha): 100%
Herbicidal action against [%] ECHCG ([4]; 20 g a.i./ha): 80%
Herbicidal action against [%] DIGSA ([5]; 20 g a.i./ha): 80%
Herbicidal action against [%] AVEFA ([6]; 20 g a.i./ha): 80%
Herbicidal action against [%] VERPE ([7]; 20 g a.i./ha): 80%
Herbicidal action against [%] SETVI ([8]; 20 g a.i./ha): 80%
Herbicidal action against [%] ABUTH [9]: 80%
Herbicidal action against [%] PHBPU [10]: 80%

CCSCCOC(=O)C1C=CC(NC(=O)C2(OC)CC(c3cc(F)cc(F)c3)=NO2)C1 (stereo not shown) [Example I-22]
Herbicidal action against [%] LOLRI ([1]; 20 g a.i./ha): 90%
Herbicidal action against [%] AMARE [2]: 80%
Herbicidal action against [%] ALOMY ([3]; 20 g a.i./ha): 90%
Herbicidal action against [%] ECHCG ([4]; 20 g a.i./ha): 80%
Herbicidal action against [%] DIGSA ([5]; 20 g a.i./ha): 90%
Herbicidal action against [%] AVEFA ([6]; 20 g a.i./ha): 90%
Herbicidal action against [%] VERPE ([7]; 20 g a.i./ha): 90%
Herbicidal action against [%] SETVI ([8]; 20 g a.i./ha): 90%
Herbicidal action against [%] ABUTH [9]: 80%
Herbicidal action against [%] PHBPU [10]: 80%

From patent publication US12185723B2, “Herbicidally active 3-phenylisoxazoline-5-carboxamides of s-containing cyclopentenylcarboxylic esters” (Bayer Aktiengesellschaft, priority 2019, dated 2025)
